# Measurements as given in the supplement of paper PMC10307832.
# Columns and labels:
# Assay in all cases: relative viability (nuclei count vs DMSO), 5 days (fraction); higher = more cells survive
# Silmitasertib + OSI-027 = compound: O=C(O)c1ccc2c(c1)nc(Nc1cccc(Cl)c1)c1ccncc12 [Silmitasertib] + COc1cccc2cc(-c3nc([C@H]4CC[C@H](C(=O)O)CC4)n4ncnc(N)c34)[nH]c12 [OSI-027] (partner 0.5 µM)
# Method in brief: (§1)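 Values are medians from duplicate plates. Each reflects relative viability, defined as the nuclei count of treated wells over that of vehicle wells. Lung cancer cell lines in 1536-well plates were pin-tool dosed one day after seeding with one drug alone or with a fixed anchor-drug dose plus five library-drug doses (not always all listed) in √10 steps, then fixed, stained and imaged at 4× after 5 days.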
# [1] = compound: O=C(O)c1ccc2c(c1)nc(Nc1cccc(Cl)c1)c1ccncc12 [Silmitasertib] + Nc1ncn([C@H]2C[C@H](O)[C@@H](CO)O2)c(=O)n1 [Decitabine] (partner 2 µM)
# Method in brief: as §1
# [2] = compound: O=C(O)c1ccc2c(c1)nc(Nc1cccc(Cl)c1)c1ccncc12 [Silmitasertib] + CCNC(=O)c1noc(-c2cc(C(C)C)c(O)cc2O)c1-c1ccc(CN2CCOCC2)cc1 [Luminespib] (partner 0.01 µM)
# Method in brief: as §1
# [3] = compound: O=C(O)c1ccc2c(c1)nc(Nc1cccc(Cl)c1)c1ccncc12 [Silmitasertib] + COc1cc2c(Oc3ccc(NC(=O)C4(C(=O)Nc5ccc(F)cc5)CC4)cc3F)ccnc2cc1OCCCN1CCOCC1 [Foretinib] (partner 0.25 µM)
# Method in brief: as §1
# [4] = compound: O=C(O)c1ccc2c(c1)nc(Nc1cccc(Cl)c1)c1ccncc12 [Silmitasertib] + Cc1nc(NC(=O)N2CCC[C@H]2C(N)=O)sc1-c1ccnc(C(C)(C)C(F)(F)F)c1 [Alpelisib] (partner 2 µM)
# Method in brief: as §1
Cell Line,relative viability (Silmitasertib + OSI-027; first compound 0.04 µM),relative viability (Silmitasertib + OSI-027; first compound 0.4 µM),relative viability (Silmitasertib + OSI-027; first compound 1.265 µM),relative viability (Silmitasertib + OSI-027; first compound 4 µM),relative viability ([1]; first compound 0.04 µM),relative viability ([1]; first compound 0.4 µM),relative viability ([1]; first compound 1.265 µM),relative viability ([1]; first compound 4 µM),relative viability ([2]; first compound 0.04 µM),relative viability ([2]; first compound 0.4 µM),relative viability ([2]; first compound 1.265 µM),relative viability ([2]; first compound 4 µM),relative viability ([3]; first compound 0.04 µM),relative viability ([3]; first compound 0.4 µM),relative viability ([3]; first compound 1.265 µM),relative viability ([3]; first compound 4 µM),relative viability ([4]; first compound 0.04 µM),relative viability ([4]; first compound 0.4 µM),relative viability ([4]; first compound 1.265 µM),relative viability ([4]; first compound 4 µM)
NCI-H1651,0.822,0.667,0.642,0.704,0.65,0.542,0.197,0.692,0.985,1.01,0.916,0.71,0.951,0.892,0.812,0.732,0.951,1.03,0.952,0.86
HARA,0.715,0.203,0.432,0.141,0.698,0.554,0.494,0.355,0.738,0.724,0.396,0.646,0.87,0.627,0.473,0.734,1.08,0.64,0.565,0.545
H3255,0.73,0.591,0.545,0.613,0.563,0.703,0.543,0.532,0.893,0.849,1.02,0.504,1.02,0.549,0.746,0.97,0.811,0.786,0.657,0.549
NCI-H441,0.629,–,0.337,0.26,0.207,–,0.216,0.231,0.369,–,0.329,0.242,0.871,–,0.67,0.277,0.746,–,0.634,0.41
ABC-1,0.52,0.37,0.221,0.226,1.44,1.05,0.686,0.922,0.889,0.696,0.332,0.312,1.07,0.83,0.457,0.367,1.11,0.832,0.546,0.381
NCI-H1437,0.946,0.623,0.598,0.457,0.578,0.533,0.445,0.411,1.17,1.04,1.03,0.823,1.28,1.16,1.24,0.942,0.976,–,0.741,0.498
HOP-62,0.897,–,0.905,0.497,0.24,–,0.203,0.211,0.954,–,1.04,0.969,1.1,–,1.18,1.14,1.03,–,0.867,0.678
EPLC-272H,0.301,–,0.24,0.178,0.475,–,0.296,0.348,1.05,–,0.18,0.181,0.687,–,0.321,0.219,1.04,–,0.632,0.763
COR-L 105,0.767,0.617,0.58,0.348,0.626,0.599,0.672,0.454,0.709,0.767,0.541,0.447,1.44,0.881,0.791,0.562,1.16,1.06,0.803,0.664
NCI-H2009,0.784,0.506,0.424,0.262,0.382,0.39,0.392,0.371,1.06,1.1,0.971,0.604,1.34,1.16,1.13,0.897,1.17,1.03,1.03,0.707
NCI-H23,0.706,–,0.423,0.206,0.353,0.256,0.255,0.245,0.217,0.197,0.215,0.217,0.97,–,0.65,0.735,0.762,–,0.67,0.547
NCI-H727,0.701,0.426,0.48,0.488,1.09,0.844,0.544,0.691,0.332,0.274,0.404,0.358,0.915,0.689,0.695,1.03,0.611,0.506,0.493,0.297
NCI-H1355,0.438,–,0.371,0.345,0.343,–,0.371,0.285,0.776,–,0.69,0.576,0.944,–,0.822,0.916,0.911,–,0.721,0.766
NCI-H1944,0.409,0.382,0.424,0.295,0.442,0.467,0.46,0.497,0.549,0.653,0.765,0.793,0.924,0.768,0.92,1,0.892,0.765,0.774,0.884
NCI-H2023,0.503,0.345,0.343,0.251,0.239,0.225,0.208,0.195,0.746,0.535,0.683,0.684,0.886,0.75,0.551,0.707,0.684,0.522,0.599,0.399
NCI-H1395,0.731,0.552,0.591,0.477,0.756,0.725,0.684,0.683,0.635,0.562,0.539,0.713,0.894,0.805,0.97,0.972,1.15,0.728,1.03,0.965
NCI-H2087,0.507,–,0.513,0.18,0.414,0.286,0.181,0.199,0.148,–,0.179,0.142,1.22,–,0.741,0.806,1.08,0.811,0.76,0.386

Cell Line,relative viability (Silmitasertib + OSI-027; first compound 0.04 µM),relative viability (Silmitasertib + OSI-027; first compound 0.4 µM),relative viability (Silmitasertib + OSI-027; first compound 1.265 µM),relative viability (Silmitasertib + OSI-027; first compound 4 µM),relative viability ([1]; first compound 0.04 µM),relative viability ([1]; first compound 0.4 µM),relative viability ([1]; first compound 1.265 µM),relative viability ([1]; first compound 4 µM),relative viability ([2]; first compound 0.04 µM),relative viability ([2]; first compound 0.4 µM),relative viability ([2]; first compound 1.265 µM),relative viability ([2]; first compound 4 µM),relative viability ([3]; first compound 0.04 µM),relative viability ([3]; first compound 0.4 µM),relative viability ([3]; first compound 1.265 µM),relative viability ([3]; first compound 4 µM),relative viability ([4]; first compound 0.04 µM),relative viability ([4]; first compound 0.4 µM),relative viability ([4]; first compound 1.265 µM),relative viability ([4]; first compound 4 µM)
NCI-H838,0.456,–,0.425,0.274,0.459,0.427,0.402,0.341,0.29,–,0.338,0.217,1.16,–,0.996,0.589,1.05,–,0.967,0.556
NCI-H1793,0.329,0.192,0.27,0.217,0.499,0.458,0.493,0.419,0.21,0.152,0.157,0.161,0.757,0.62,0.427,0.607,0.694,0.619,0.656,0.564
LC-2-ad,0.982,0.709,0.721,0.483,0.836,0.794,0.689,0.665,1.22,1.03,1.21,1.09,1.14,0.891,0.898,0.827,0.78,0.87,0.783,0.827
LOU-NH91,0.709,0.665,0.629,0.543,0.876,0.801,0.754,0.782,0.355,0.301,0.264,0.248,0.948,0.786,0.859,0.827,0.8,0.614,0.612,0.593
NCI-H1734,0.626,0.522,0.593,0.497,0.613,0.52,0.536,0.412,0.185,0.209,0.186,0.202,0.877,0.8,0.781,0.753,0.688,–,0.649,0.66
NCI-H520,0.197,0.239,0.252,0.252,0.586,0.578,0.528,0.502,0.242,0.232,0.242,0.289,0.742,1,0.934,0.711,0.932,1.01,1.16,0.832
UMC-11,0.491,0.485,0.438,0.402,0.688,0.464,0.587,0.541,1.2,1.1,0.861,0.613,1.19,1.16,1.11,0.619,1.03,0.994,1,0.627
NCI-H596,0.749,0.471,0.68,0.472,0.909,1.05,1.05,0.785,0.948,0.843,0.918,1,0.817,0.74,0.787,0.871,0.47,0.429,0.382,0.444
NCI-H1755,0.726,0.764,0.728,0.721,0.715,0.735,0.735,0.762,0.378,0.627,0.364,0.525,0.945,0.911,0.901,1.07,0.981,0.912,0.908,0.987
SK-LU-1,0.432,0.248,0.223,0.197,0.708,0.622,0.297,0.428,0.21,0.204,0.187,0.179,0.954,0.693,0.621,0.417,1.09,0.836,0.413,0.27
NCI-H647,0.775,0.578,0.503,0.44,0.411,0.387,0.344,0.288,0.159,0.268,0.241,0.133,1.21,1.04,0.874,1.06,1.37,1.09,0.688,0.465
SW 1573,0.648,0.616,0.548,0.319,0.515,0.406,0.441,0.372,0.243,0.215,0.179,0.164,0.882,0.801,0.744,0.202,0.758,0.588,0.723,0.504
HCC-15,0.761,0.552,0.437,0.24,0.703,0.536,0.404,0.292,0.368,0.204,0.281,0.207,1.03,0.86,0.772,0.761,0.972,0.683,0.618,0.45
NCI-H2126,0.725,–,0.596,0.602,0.585,0.631,0.497,0.508,0.915,0.901,0.777,0.853,1.21,–,1.03,1.07,0.72,0.667,0.727,0.704
NCI-H2085,0.914,–,0.704,0.466,0.594,0.553,0.553,0.459,0.409,–,0.422,0.386,0.918,–,0.952,0.861,1.02,0.806,0.81,0.878
BEN,0.317,–,0.336,0.269,0.866,0.685,0.537,0.656,0.484,–,0.623,0.284,0.858,–,0.657,0.467,1.02,0.783,0.896,0.956
